Assay results taken from patent publication US11279733B2, “Peptide antibiotics” (priority 2017, dated 2022).
In brackets after ≈: the same amount, converted by molar mass. Where two headings read alike, the source gives them in different places. Positions of bridges follow the written chain, without caps; N, C: chain ends. Non-standard residues stand in square brackets, D forms with d. Residues, ends and D or L forms follow the SMILES beside them. *: point of attachment. dPhe(4-NO2) = N[C@H](Cc1ccc([N+](=O)[O-])cc1)C(=O)O; Benzoyl(4-OPh) = O=C(c1ccc(Oc2ccccc2)cc1)*; Decanoyl(3R-OH) = CCCCCCC[C@@H](O)CC(=O)*; dBip = N[C@H](Cc1ccc(-c2ccccc2)cc1)C(=O)O; Phe(4-NH2) = Nc1ccc(C[C@H](N)C(=O)O)cc1; X4 = CCCCCOc1ccc(C(=O)*)cc1; dDab = NCC[C@@H](N)C(=O)O; X8 = CC(C)CCCC(C)CC(=O)*; Dab = NCC[C@H](N)C(=O)O

Key:
[1] = test system: K. pneumoniae GN_102 PmxR; conditions: GN 102 PmxR
Method in brief: (§1)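 Mid-log cultures grown in Mueller Hinton broth at 37° C were tested by 2-fold broth microdilution at 5×10^5 CFU/mL final. Compounds were dissolved in water and tested over a final range of 32 to 0.015 μg/mL.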

A. baumannii GN_093 PmxR = conditions: GN 093 PmxR
Method in brief: as §1

[2] = test system: P. aeruginosa GN_043, PmxR; conditions: for MIC, P. aeruginosa FADDI-PA070, PmxR: Table 5
Method in brief: as §1

P. aeruginosa ATCC 27853 = conditions: ATCC 27853
Method in brief: as §1

[3] = test system: K. pneumoniae GN_106, PmxR; conditions: GN 106, PmxR
Method in brief: as §1

E. coli ATCC 25922 = conditions: ATCC 25922
Method in brief: as §1

[4] = test system: K. pneumoniae ATCC BAA-2146, NDM-1 pos; conditions: ATCC BAA-2146
Method in brief: as §1

K. pneumoniae ATCC 13883 = conditions: ATCC 13883
Method in brief: as §1

A. baumannii ATCC 19606 = conditions: ATCC 19606
Method in brief: as §1

[5] = test system: P. aeruginosa GN_105, PmxR; conditions: GN 105, PmxR
Method in brief: as §1

[6] = test system: K. pneumoniae ATCC 700603, MDR; conditions: ATCC 700603
Method in brief: as §1

[7] = test system: S. aureus ATCC 25923, MSSA; conditions: ATCC 25923
Method in brief: as §1

SMILES	MIC K. pneumoniae GN_102 PmxR [1]	MIC A. baumannii GN_093 PmxR (A. baumannii GN_093 PmxR)	MIC, P. aeruginosa ATCC 27853 (P. aeruginosa ATCC 27853)	MIC K. pneumoniae GN_106, PmxR [3]	MIC, E. coli ATCC 25922 (E. coli ATCC 25922)	MIC, K. pneumoniae ATCC BAA-2146, NDM-1 pos [4]	MIC, K. pneumoniae ATCC 13883 (K. pneumoniae ATCC 13883)	MIC, A. baumannii ATCC 19606 (A. baumannii ATCC 19606)	MIC P. aeruginosa GN_105, PmxR [5]	MIC, K. pneumoniae ATCC 700603, MDR [6]	MIC P. aeruginosa GN_043, PmxR [2]	MIC P. aeruginosa ATCC 27853 (P. aeruginosa ATCC 27853)	MIC E. coli ATCC 25922 (E. coli ATCC 25922)	MIC K. pneumoniae ATCC BAA-2146, NDM-1 pos [4]	MIC K. pneumoniae ATCC 13883 (K. pneumoniae ATCC 13883)	MIC A. baumannii ATCC 19606 (A. baumannii ATCC 19606)	MIC K. pneumoniae ATCC 700603, MDR [6]	MIC S. aureus ATCC 25923, MSSA [7]	other results
CCCCCCC[C@@H](O)CC(=O)N[C@H](Cc1ccc([N+](=O)[O-])cc1)C(=O)N[C@H]1CCNC(=O)[C@H](CC(C)C)NC(=O)[C@H](CCN)NC(=O)[C@H](CCN)NC(=O)[C@H](CC(C)C)NC(=O)[C@@H](Cc2ccccc2)NC(=O)[C@H](CCN)NC1=O [compound 6448, 3(R)OH-nC9CO-D-4NO2Phe-cyc[L-Dab-L-Dab-D-Phe-L-Leu-L-Dab-L-Dab-L-Leu]] ({Decanoyl(3R-OH)}-[dPhe(4-NO2)][Dab][Dab][dF]L[Dab][Dab]L; lactam 2-C)	8 µg/mL (≈ 7.04 µM)	8 µg/mL (≈ 7.04 µM)	8 µg/mL (≈ 7.04 µM)	4 µg/mL (≈ 3.52 µM)	4 µg/mL (≈ 3.52 µM)	8 µg/mL (≈ 7.04 µM)	4 µg/mL (≈ 3.52 µM)	8 µg/mL (≈ 7.04 µM)	8 µg/mL (≈ 7.04 µM)	8 µg/mL (≈ 7.04 µM)	–	–	–	–	–	–	–	–	MIC P. aeruginosa GN_043, PmxR ([2]; Table 6, polymyxin-resistant): 8 µg/mL (≈ 7.04 µM); MIC, S. aureus ATCC 25923, MSSA [7]: 16 µg/mL (≈ 14.1 µM)
CC(C)CCCC(C)CC(=O)N[C@H](CCN)C(=O)N[C@H]1CCNC(=O)[C@H](CC(C)C)NC(=O)[C@H](CCN)NC(=O)[C@H](CCN)NC(=O)[C@H](CC(C)C)NC(=O)[C@@H](Cc2ccccc2)NC(=O)[C@H](CCN)NC1=O (stereo partly drawn) [compound 6523, 3,7-dimethyloctanoic acid-D-Dab-cyc[L-Dab-L-Dab-D-Phe-L-Leu-L-Dab-L-Dab-L-Leu]] (X8-[dDab][Dab][Dab][dF]L[Dab][Dab]L; lactam 2-C)	16 µg/mL (≈ 15.6 µM)	16 µg/mL (≈ 15.6 µM)	–	32 µg/mL (≈ 31.1 µM)	–	–	–	–	2 µg/mL (≈ 1.94 µM)	–	2 µg/mL (≈ 1.94 µM)	2 µg/mL (≈ 1.94 µM)	1 µg/mL (≈ 0.972 µM)	8 µg/mL (≈ 7.78 µM)	4 µg/mL (≈ 3.89 µM)	>32 µg/mL	8 µg/mL (≈ 7.78 µM)	32 µg/mL (≈ 31.1 µM)	–
CC(C)C[C@@H]1NC(=O)[C@H](CCN)NC(=O)[C@H](CCN)NC(=O)[C@H](CC(C)C)NC(=O)[C@@H](Cc2ccccc2)NC(=O)[C@H](CCN)NC(=O)[C@@H](NC(=O)[C@@H](CCN)NC(=O)c2ccc(Oc3ccccc3)cc2)CCNC1=O [compound 6527, Ph-4-OPhCO-D-Dab-cyc[L-Dab-L-Dab-D-Phe-L-Leu-L-Dab-L-Dab-L-Leu]] ({Benzoyl(4-OPh)}-[dDab][Dab][Dab][dF]L[Dab][Dab]L; lactam 2-C)	32 µg/mL (≈ 29.9 µM)	>32 µg/mL	–	>32 µg/mL	–	–	–	–	4 µg/mL (≈ 3.74 µM)	–	1 µg/mL (≈ 0.934 µM)	2 µg/mL (≈ 1.87 µM)	2 µg/mL (≈ 1.87 µM)	16 µg/mL (≈ 14.9 µM)	16 µg/mL (≈ 14.9 µM)	>32 µg/mL	16 µg/mL (≈ 14.9 µM)	>32 µg/mL	–
CCCCCOc1ccc(C(=O)N[C@H](CCN)C(=O)N[C@H]2CCNC(=O)[C@H](CC(C)C)NC(=O)[C@H](CCN)NC(=O)[C@H](CCN)NC(=O)[C@H](CC(C)C)NC(=O)[C@@H](Cc3ccccc3)NC(=O)[C@H](CCN)NC2=O)cc1 [compound 6528, 4-(pentyloxy)benzoic acid-D-Dab-cyc[L-Dab-L-Dab-D-Phe-L-Leu-L-Dab-L-Dab-L-Leu]] (X4-[dDab][Dab][Dab][dF]L[Dab][Dab]L; lactam 2-C)	>32 µg/mL	32 µg/mL (≈ 30.1 µM)	–	32 µg/mL (≈ 30.1 µM)	–	–	–	–	4 µg/mL (≈ 3.76 µM)	–	1 µg/mL (≈ 0.94 µM)	1 µg/mL (≈ 0.94 µM)	2 µg/mL (≈ 1.88 µM)	8 µg/mL (≈ 7.52 µM)	8 µg/mL (≈ 7.52 µM)	>32 µg/mL	16 µg/mL (≈ 15 µM)	32 µg/mL (≈ 30.1 µM)	–
CCCCCCC[C@@H](O)CC(=O)N[C@@H](CCN)C(=O)N[C@@H]1CCNC(=O)[C@H](CC(C)C)NC(=O)[C@H](CCN)NC(=O)[C@H](CCN)NC(=O)[C@H](CC(C)C)NC(=O)[C@@H](Cc2ccc(-c3ccccc3)cc2)NC(=O)[C@H](CCN)NC1=O [compound 6661, 3(R)OH-nC9CO-L-Dab-cyc[D-Dab-L-Dab-D-Bip-L-Leu-L-Dab-L-Dab-L-Leu]] ({Decanoyl(3R-OH)}-[Dab][dDab][Dab][dBip]L[Dab][Dab]L; lactam 2-C)	>32 µg/mL	>32 µg/mL	–	>32 µg/mL	–	–	–	–	8 µg/mL (≈ 7.14 µM)	–	–	8 µg/mL (≈ 7.14 µM)	32 µg/mL (≈ 28.6 µM)	32 µg/mL (≈ 28.6 µM)	32 µg/mL (≈ 28.6 µM)	>32 µg/mL	32 µg/mL (≈ 28.6 µM)	8 µg/mL (≈ 7.14 µM)	MIC P. aeruginosa GN_043, PmxR ([2]; P. aeruginosa GN_043, PmxR): >32 µg/mL
CCCCCCC[C@@H](O)CC(=O)N[C@H](CCN)C(=O)N[C@H]1CCNC(=O)[C@H](CC(C)C)NC(=O)[C@H](CCN)NC(=O)[C@H](CCN)NC(=O)[C@H](CC(C)C)NC(=O)[C@@H](Cc2ccccc2)NC(=O)[C@H](CCCNC(=N)N)NC1=O [compound 8634, 3(R)OH-nC9CO-D-Dab-cyc[L-Dab-L-Arg-D-Phe-L-Leu-L-Dab-L-Dab-L-Leu]] ({Decanoyl(3R-OH)}-[dDab][Dab]R[dF]L[Dab][Dab]L; lactam 2-C)	–	–	4 µg/mL (≈ 3.63 µM)	–	8 µg/mL (≈ 7.27 µM)	8 µg/mL (≈ 7.27 µM)	8 µg/mL (≈ 7.27 µM)	16 µg/mL (≈ 14.5 µM)	–	4 µg/mL (≈ 3.63 µM)	–	–	–	–	–	–	–	–	MIC, K. pneumoniae Cl Koprana 10065 0661:1, PmxR [1]: 4 µg/mL (≈ 3.63 µM); MIC, A. baumannii Cl Ptyela 10073 4512:2, PmxR (A. baumannii GN_093 PmxR): 32 µg/mL (≈ 29.1 µM); MIC, P. aeruginosa FADDI-PA070, PmxR ([2]; polymyxin-resistant): 2 µg/mL (≈ 1.82 µM); MIC, K. pneumoniae Cl 138-16347-20362, PmxR [3]: 8 µg/mL (≈ 7.27 µM); MIC, P. aeruginosa PA9704, PmxR [5]: 4 µg/mL (≈ 3.63 µM); MIC, S. Aureus ATCC 25923, MSSA [7]: 16 µg/mL (≈ 14.5 µM)
CCCCCCC[C@@H](O)CC(=O)N[C@H](CCN)C(=O)N[C@H]1CCNC(=O)[C@H](CC(C)C)NC(=O)[C@H](CCN)NC(=O)[C@H](Cc2ccc(N)cc2)NC(=O)[C@H](CC(C)C)NC(=O)[C@@H](Cc2ccccc2)NC(=O)[C@H](CCN)NC1=O [compound 8642, 3(R)OH-nC9CO-D-Dab-cyc[L-Dab-L-DAB-D-Phe-L-Leu-L-4NH2Phe-L-Dab-L-Leu]] ({Decanoyl(3R-OH)}-[dDab][Dab][Dab][dF]L[Phe(4-NH2)][Dab]L; lactam 2-C)	–	–	8 µg/mL (≈ 7.23 µM)	–	4 µg/mL (≈ 3.62 µM)	4 µg/mL (≈ 3.62 µM)	4 µg/mL (≈ 3.62 µM)	8 µg/mL (≈ 7.23 µM)	–	4 µg/mL (≈ 3.62 µM)	–	–	–	–	–	–	–	–	MIC, K. pneumoniae Cl Koprana 10065 0661:1, PmxR [1]: 2 µg/mL (≈ 1.81 µM); MIC, A. baumannii Cl Ptyela 10073 4512:2, PmxR (A. baumannii GN_093 PmxR): 16 µg/mL (≈ 14.5 µM); MIC, P. aeruginosa FADDI-PA070, PmxR ([2]; polymyxin-resistant): 8 µg/mL (≈ 7.23 µM); MIC, K. pneumoniae Cl 138-16347-20362, PmxR [3]: 4 µg/mL (≈ 3.62 µM); MIC, P. aeruginosa PA9704, PmxR [5]: 8 µg/mL (≈ 7.23 µM); MIC, S. Aureus ATCC 25923, MSSA [7]: 8 µg/mL (≈ 7.23 µM)
